System: SK-OV3 cells
Experiment: preclinical efficacy study on the human ovarian tumor model in mice (tumor volume)
Type: in vivo
Conditions: via tail vein once every three days, 4 doses, measured every third day through the 22nd day
Experimental: A preclinical efficacy study was conducted on the human ovarian tumor model in mice. The tumor cells used were SK-OV3 cells purchased from ATCC. The mice were 4-6 week old Athymic (nu+/nu+) female mice. The IRL-1620 was intravenously-infused slowly (over 30 seconds).
A solid tumor was induced in each animal using 3 million viable SK-OV3 cells suspended in 200 µl of PBS per animal. After 10 days, when established tumors of 100 mm^3 in diameter were detectable, the mice randomly were divided into six groups of 6 animals per group with each group receiving different treatments. The treatment regimens were administered via the tail vein every third day for a total of 4 doses. […]
The effect of these treatments on the tumor size was measured using a digital caliper for a total of 12 days after drug administration. The mice were monitored and weighed on every third day. […] Progression, stasis, partial regression or complete regression of tumor growth were measured by tumor load measurements with calipers and was calculated using the following formula: (3.14/6) x larger diameter x smaller diameter.

`N.N.[Cl][Pt][Cl]` [saline/cisplatin, cisplatin] was tested, and the tumor volume (Figure 1, cisplatin 2.5 mg/kg with saline or IRL-1620 3 nmol/kg) was “significant reduction in tumor volume”.
For `O=P1(N(CCCl)CCCl)NCCCO1` (centres unmarked) [saline/cyclophosphamide, cyclophosphamide], the tumor volume (Figure 3, cyclophosphamide 75 mg/kg with saline or IRL-1620 3 nmol/kg) was “significant reduction in tumor volume”.
